Laboratory results: US20100144672A1, “PYRIMIDINYL PYRAZOLES AS INSECTICIDES AND PARASITICIDE ACTIVE AGENTS” (BAYER CROPSCIENCE AG, priority 2006, published 2010)
Like-named read-outs stand apart in the source and are kept apart here.

Experiments:
[1] = logP by HPLC (EEC-Directive 79/831 Annex V.A8); assay type: physicochemical; details: for lgP: Table 19, Physical data
Experimental: The logP values given in the tables were determined in accordance with EEC-Directive 79/831 Annex V.A8 by HPLC (gradient method, acetonitrile/0.1% strength aqueous phosphoric acid or formic acid).

[2] = system: larvae of the mustard beetle (Phaedon cochleariae); assay: Phaedon test (PHAECO spray treatment); assay type: in vivo; details: 168 h, application rate 500 g/ha, after 7 d, read-out: activity (effect in %, beetle larvae killed)
Experimental: Phaedon Test ([…] Spray Treatment) [table] To produce a suitable preparation of active compound, 1 part by weight of active compound is mixed with the stated amounts of solvents and emulsifier, and the concentrate is diluted with emulsifier-containing water to the desired concentration. Discs of chinese cabbage (Brassica pekinensis) are sprayed with an active compound preparation of the desired concentration and, after drying, populated with larvae of the mustard beetle (Phaedon cochleariae). After the desired period of time, the effect in % is determined 100% means that all beetle larvae have been killed; 0% means that none of the beetle larvae have been killed.

[3] = system: caterpillars of the army worm (Spodoptera frugiperda); assay: Spodoptera frugiperda test (SPODFR spray treatment); assay type: in vivo; details: 168 h, application rate 500 g/ha, after 7 d, read-out: activity (effect in %, caterpillars killed)
Experimental: Spodoptera frugiperda Test (SPODFR Spray Treatment) [table] To produce a suitable preparation of active compound, 1 part by weight of active compound is mixed with the stated amounts of solvents and emulsifier, and the concentrate is diluted with emulsifier-containing water to the desired concentration. Discs of maize leaves (Zea mays) are sprayed with an active compound preparation of the desired concentration and, after drying, populated with caterpillars of the army worm (Spodoptera frugiperda). After the desired period of time, the effect in % is determined 100% means that all caterpillars have been killed; 0% means that none of the caterpillars have been killed.

[4] = HPLC gradient method, acetonitrile/0.1% aqueous phosphoric acid or formic acid

Question: With Nc1c(-c2ccccc2Cl)c(C(F)(F)F)nn1-c1ncccn1 [1-04] as the molecule, how does the logP [1] read?
Answer: Its logP is “logP = 2.59”.

Question: Which logP [1, 4] does the source give for Nc1c(-c2ccc(Oc3ccccc3)cc2)c(C(F)(F)F)nn1-c1ncccn1 [5-40] here?
Answer: The logP was “logP 3.22”.

Question: With Nc1c(-c2cccc(Cl)c2)c(C(F)(F)F)nn1-c1ncccn1 [Example 1-5] as the molecule, how does the logP [1, 4] read?
Answer: The logP was “logP = 2.96”.

Question: For Nc1c(-c2ccc(Cl)c(Br)c2)c(C(F)(F)F)nn1-c1ncccn1 [Example 1-87, 4-(3-bromo-4-chlorophenyl)-2-pyrimidin-2-yl-5-(trifluoromethyl)-2H-pyrazol-3-ylamine], which pest or weed control at 500 g/ha [2] is on record?
Answer: Its pest or weed control at 500 g/ha is ≥ 80%.

Question: And the pest or weed control at 500 g/ha [3]?
Answer: The pest or weed control at 500 g/ha was ≥ 80%.

Question: For CCOc1ccc(-c2c(C(F)(F)F)nn(-c3ncccn3)c2N)cc1 [Example 5-23], which pest or weed control at 500 g/ha [2] is on record?
Answer: The pest or weed control at 500 g/ha was ≥ 80%.

Question: With CC(C)Oc1ccc(-c2c(C(F)(F)F)nn(-c3ncccn3)c2N)cc1 [Example 5-25] as the molecule, how does the pest or weed control at 500 g/ha [2] read?
Answer: Its pest or weed control at 500 g/ha is ≥ 80%.

Question: For CSc1ccc(-c2c(C(F)(F)F)nn(-c3ncccn3)c2N)cc1 [Example 5-58], which pest or weed control at 500 g/ha [2] is on record?
Answer: Its pest or weed control at 500 g/ha is ≥ 80%.

Question: For C[S+]([O-])c1ccc(-c2c(C(F)(F)F)nn(-c3ncccn3)c2N)cc1 (stereo not drawn) [Example 5-59], which pest or weed control at 500 g/ha [2] is on record?
Answer: The pest or weed control at 500 g/ha was ≥ 80%.

Question: With CS(=O)(=O)c1ccc(-c2c(C(F)(F)F)nn(-c3ncccn3)c2N)cc1 [Example 5-60] as the molecule, how does the pest or weed control at 500 g/ha [2] read?
Answer: Its pest or weed control at 500 g/ha is ≥ 80%.

Question: Which pest or weed control at 500 g/ha [2] does the source give for CN(C)c1ccc(-c2c(C(F)(F)F)nn(-c3ncccn3)c2N)cc1 [Example 5-89] here?
Answer: Its pest or weed control at 500 g/ha is ≥ 80%.

Question: Which pest or weed control at 500 g/ha [2] does the source give for Nc1c(-c2cccc(SC(F)(F)F)c2)c(C(F)(F)F)nn1-c1ncccn1 [Example 6-61] here?
Answer: Its pest or weed control at 500 g/ha is ≥ 80%.

Question: Which results are given for N#Cc1cccc(-c2c(C(F)(F)F)nn(-c3ncccn3)c2N)c1 [Example 6-70]?
Answer: pest or weed control at 500 g/ha [2]: ≥ 80%; pest or weed control at 500 g/ha [3]: ≥ 80%

Question: For Nc1c(-c2cccc([N+](=O)[O-])c2)c(C(F)(F)F)nn1-c1ncccn1 [Example 6-78], which pest or weed control at 500 g/ha [2] is on record?
Answer: The pest or weed control at 500 g/ha was ≥ 80%.

Question: What about the pest or weed control at 500 g/ha [3] of the same molecule?
Answer: Its pest or weed control at 500 g/ha is ≥ 80%.

Question: For CC(C)Oc1ccc(-c2c(C(F)(F)F)nn(-c3ncccn3)c2N)cc1Cl [Example 8-92, 4-(3-chloro-4-isopropoxyphenyl)-2-pyrimidin-2-yl-5-trifluoromethyl-2H-pyrazol-3-ylamine], which pest or weed control at 500 g/ha [2] is on record?
Answer: Its pest or weed control at 500 g/ha is ≥ 80%.

Question: For CNc1c(-c2ccc(Br)cc2)c(C(F)(F)F)nn1-c1ncccn1 [Example 11-10, 4-(4-bromophenyl)-N-methyl-1-pyrimidin-2-yl-3-(trifluoromethyl)-1H-pyrazole-5-amine], which pest or weed control at 500 g/ha [2] is on record?
Answer: Its pest or weed control at 500 g/ha is ≥ 80%.

Question: Which “logP (lgP), Physical data” value ([1]; by HPLC) does the source give for FC(F)(F)c1nn(-c2ncccn2)c(Cl)c1-c1cccc(Cl)c1 [Example 14-06] here?
Answer: Its value is “lgP = 3.88”.

Question: With FC(F)(F)c1nn(-c2ncccn2)c(Br)c1-c1cccc(Cl)c1 [Example 14-25] as the molecule, how does the “logP (lgP), Physical data” value ([1]; by HPLC) read?
Answer: The value was “lgP = 3.89”.

Question: For FC(F)(F)c1nn(-c2ncccn2)c(Br)c1-c1ccc(Br)cc1 [Example 14-29], which chromatographic logP ([1]; by HPLC, read-out: logP (lgP), Physical data) is on record?
Answer: Its chromatographic logP is 3.75.

Question: For FC(F)(F)c1nn(-c2ncccn2)c(Br)c1-c1cc(Cl)cc(Cl)c1 [Example 14-38], which “logP (lgP), Physical data” value ([1]; by HPLC) is on record?
Answer: Its value is “lgP = 4.62”.

Question: With FC(F)(F)c1nn(-c2ncccn2)c(I)c1-c1cccc(Cl)c1 [Example 14-44] as the molecule, how does the “logP (lgP), Physical data” value ([1]; by HPLC) read?
Answer: Its value is “lgP = 3.78”.

Question: With FC(F)(F)c1nn(-c2ncccn2)c(I)c1-c1ccc(Cl)c(Cl)c1 [Example 14-56] as the molecule, how does the “logP (lgP), Physical data” value ([1]; by HPLC) read?
Answer: The value was “lgP = 4.39”.

Question: With FC(F)(F)c1nn(-c2ncccn2)c(I)c1-c1cc(Cl)cc(Cl)c1 [Example 14-57] as the molecule, how does the “logP (lgP), Physical data” value ([1]; by HPLC) read?
Answer: Its value is “lgP = 4.51”.

Question: With FC(F)(F)c1cc(Cl)cc(-c2c(C(F)(F)F)nn(-c3ncccn3)c2Br)c1 [Example 14-58] as the molecule, how does the “logP (lgP), Physical data” value ([1]; by HPLC) read?
Answer: The value was “lgP = 4.64”.

Question: With FC(F)(F)c1cc(Cl)cc(-c2c(C(F)(F)F)nn(-c3ncccn3)c2I)c1 [Example 14-59] as the molecule, how does the “logP (lgP), Physical data” value ([1]; by HPLC) read?
Answer: Its value is “lgP = 4.39”.

Question: For Cc1nn(-c2ncccn2)c(N)c1-c1ccc(F)cc1Cl [Example 16-18], which logP ([1]; Physical data column of Table 16) is on record?
Answer: Its logP is “logP = 1.71”.

Question: For Cc1ccnc(-n2nc(C(F)(F)F)c(-c3cccc(Br)c3)c2N)n1 [Example 19-09], which lgP [1] is on record?
Answer: Its lgP is “lgP = 3.84”.

Question: For Cc1ccnc(-n2nc(C(F)(F)F)c(-c3ccc(Br)cc3)c2N)n1 [Example 19-10], which lgP [1] is on record?
Answer: The lgP was “lgP = 3.37”.

Question: With Cc1ccnc(-n2nc(C(F)(F)F)c(-c3ccc(Cl)c(Cl)c3)c2N)n1 [Example 19-18] as the molecule, how does the lgP [1] read?
Answer: Its lgP is “lgP = 3.73”.

Question: Which lgP [1] does the source give for Nc1c(-c2ccc(Br)cc2)c(C(F)(F)F)nn1-c1ncc(F)cn1 [Example 19-48] here?
Answer: The lgP was “lgP = 3.19”.

Question: Which lgP [1] does the source give for Nc1c(-c2cc(Cl)cc(Cl)c2)c(C(F)(F)F)nn1-c1ncc(F)cn1 [Example 19-57] here?
Answer: Its lgP is “lgP = 3.63”.

Question: For Nc1c(-c2ccc(Cl)cc2)c(C(F)(F)F)nn1-c1ncc(Cl)cn1 [Example 19-64], which lgP [1] is on record?
Answer: Its lgP is “lgP = 3.53”.

Question: Which lgP [1] does the source give for Nc1c(-c2cc(Cl)cc(Cl)c2)c(C(F)(F)F)nn1-c1ncc(Cl)cn1 [Example 19-76] here?
Answer: The lgP was “lgP = 4.10”.

Question: Which lgP [1] does the source give for Nc1c(-c2cc(Cl)cc(Cl)c2)c(C(F)(F)F)nn1-c1ncc(Br)cn1 [Example 19-95] here?
Answer: Its lgP is “lgP = 4.15”.
